Entries after “also recorded” stand apart in the source; their conditions may differ.
Legend:
[1] = molecular target: T1, GPER-1 overexpressing 293T cells [GPER-1过表达细胞, 293T细胞系] (Homo sapiens, UniProt Q99527); experiment: UPLC-QTOF/MS screening of CGD components binding to GPER-1 overexpressing cells; conditions: GPER gene overexpressing cell line
T1 construct: expressed in transfected cells; host or cells: 293T (HEK-293T), lentiviral recombinant plasmid system

[2] = system: triple-negative breast cancer MDA-MB-231 cells [三阴性乳腺癌MDA-MB-231细胞]; experiment: MTT assay of MDA-MB-231 cell proliferation; format: cell-based; conditions: MDA-MB-231, 24 h
[3] = system: retinoid X receptor [类视黄醇X受体]; conditions: cited from earlier work
GPER = GPER (Homo sapiens, UniProt Q99527); experiment: GPER activity (conclusion, no separate method); format: biochemical
[4] = molecular target: T2, GPER target protein [GPER靶蛋白] (Homo sapiens, UniProt Q99527); experiment: Cellular thermal shift analysis (CESTA) with Western blot; format: binding; conditions: 10 μM, 24 h, GPER overexpressing HEK-293T
T2 construct: expressed in transfected cells; host or cells: 293T (HEK-293T), lentiviral recombinant plasmid system
T2 sequence (Q99527 whole entry): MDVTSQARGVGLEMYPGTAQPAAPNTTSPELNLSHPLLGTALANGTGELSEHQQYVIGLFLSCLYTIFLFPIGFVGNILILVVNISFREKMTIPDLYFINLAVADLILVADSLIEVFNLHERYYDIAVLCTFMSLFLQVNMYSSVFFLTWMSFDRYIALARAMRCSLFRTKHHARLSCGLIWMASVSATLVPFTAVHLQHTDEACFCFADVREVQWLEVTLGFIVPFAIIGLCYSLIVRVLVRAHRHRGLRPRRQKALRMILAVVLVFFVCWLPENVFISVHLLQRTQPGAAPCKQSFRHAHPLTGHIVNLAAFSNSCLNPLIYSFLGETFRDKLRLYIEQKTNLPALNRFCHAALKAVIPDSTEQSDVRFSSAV

Chain of GPER (Q99527 whole entry, species assumed): as the sequence (Q99527 whole entry) above
T1 sequence (Q99527 whole entry): as above

CC(C)=CCC[C@@H](C(=O)O)[C@H]1[C@H](O)C[C@@]2(C)C3=CC[C@H]4C(C)(C)[C@@H](O)CC[C@]4(C)C3=CC[C@]12C [16α-羟基松苓新酸, 16α-Hydroxydehydrotrametenolic acid]
binding to GPER overexpressing cell line [1]: 能与GPER基因过表达细胞系相结合 | inhibition of triple-negative breast cancer cell proliferation at 10 μmol/L ([2]; 10 μmol/L): 具有抑制三阴乳腺癌细胞增殖的能力 | inhibition of cancer cell proliferation at 40 μmol/L ([2]; 40 μmol/L): 接近最大抑制能力 | inhibition of triple-negative breast cancer cell proliferation ([2]; 0.5-100 μmol/L, Fig. 4): 具有显著的抑制三阴乳腺癌细胞增殖的能力 | inhibition at 40 μmol/L compared with 100 μmol/L ([2]; 40 vs 100 μmol/L): 和100μmol/L浓度相当 | concentration dependence of cancer cell inhibition ([2]; increasing concentration from 10 μmol/L): 抑制癌细胞的能力随浓度增高而增加 | agonism at retinoid X receptor [3]: 天然选择性激动剂 | GPER activity (GPER): 提高GPER活性 | binding ability to GPER (CESTA) [4]: 与GPER具有较强的结合能力; also recorded: 结合能力尤为突出 | abundance of GPER target protein after heating vs vehicle ([4]; 55 to 70°C): 丰度高于用载体处理的蛋白质的丰度 | stability of target protein ([4]; 55 to 70°C): 增加了靶蛋白的稳定性; also recorded: 能促进GPER靶蛋白的热稳定

From patent publication CN117899087A, “与g蛋白偶联型雌激素受体结合的治疗乳腺癌的中药提取物及其应用” (Wuxi Hospital of Traditional Chinese Medicine, priority 2024, dated 2024)
